Laboratory results taken from EP2948433B1, “ATGLISTATIN AS LIPASE INHIBITOR” (Technische Universität Graz, priority 2013, dated 2014).

Key:
recombinant ATGL = molecular target: T1, recombinant ATGL (Mus musculus, UniProt Q8BJ56); assay: TG hydrolase activity of E. coli lysates overexpressing recombinant strep-tagged ATGL and CGI-58, radiolabeled triolein substrate; assay type: biochemical
T1 construct: Strep-tag; made in house; host or cells: E. coli (XL-1), vector pASK-IBA5+; crude lysate supernatant, not purified
T1 sequence (Q8BJ56 1-486): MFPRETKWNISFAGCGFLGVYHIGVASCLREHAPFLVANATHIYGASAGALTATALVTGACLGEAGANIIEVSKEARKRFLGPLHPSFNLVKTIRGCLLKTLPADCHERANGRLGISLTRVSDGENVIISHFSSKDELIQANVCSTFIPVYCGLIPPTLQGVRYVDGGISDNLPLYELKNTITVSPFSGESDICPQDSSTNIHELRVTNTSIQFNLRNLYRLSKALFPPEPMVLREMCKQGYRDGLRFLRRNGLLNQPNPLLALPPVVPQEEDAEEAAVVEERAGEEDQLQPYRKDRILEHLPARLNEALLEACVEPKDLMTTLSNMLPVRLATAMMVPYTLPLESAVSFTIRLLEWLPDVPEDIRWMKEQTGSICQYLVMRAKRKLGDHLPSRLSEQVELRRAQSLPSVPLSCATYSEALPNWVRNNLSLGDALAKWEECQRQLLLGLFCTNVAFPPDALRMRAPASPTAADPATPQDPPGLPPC
Protocol: • Figure 1. Structure of compounds 1 to 3 (reference) and compound 4 (atglistatin) and effect on ATGL activity. For determination of lipase activity, lysates of E. coli overexpressing recombinant strep-tagged ATGL and CGI-58 were incubated with a substrate containing radiolabeled [9,10-3H(N)]-triolein. Subsequently, FA were extracted and quantified by liquid scintillation counting. Lysates of cells expressing empty vector were set as blank. Inhibitors were solubilized in DMSO and added at the indicated concentrations. DMSO alone was used as negative control. (A) Structure and IC50 values of compounds 1-4. (B) Dose-dependent inhibition of ATGL in the presence of compound 3 and 4. […] (C) Lineweaver-Burk plots for kinetic analysis of ATGL inhibition. Experiments were performed at varying concentrations of substrate (0.05 - 3 mM) in presence and absence of compound 4 (Atglistatin). […] Data are presented as mean +/-S.D. of triplicate determinations. Data for compound 4 are representative for at least three independent experiments. • Figure 2. Selectivity of Atglistatin. Lipase activity of ATGL, HSL, lipoprotein lipase, and pancreatic lipase was determined using triolein as substrate. MGL activity was detected in the presence of rac-(1,3)-monooleoylglycerol as substrate. Inhibitors were solubilized in DMSO and added at the indicated concentrations. DMSO alone was used as negative control. (A) Dose-dependent inhibition of TG hydrolase activity in WAT lysates obtained from wild-type and ATGL-ko mice. (B) Inhibition of TG hydrolase activity in wild-type WAT lysates by Atglistatin (40 µM) and by the HSL inhibitor Hi 76-0079 (20 µM). (C) Effect of Atglistatin on murine MGL (purified from E. coli), and murine HSL (overexpressed in COS-7 lysates) activity. (D) Effect of Atglistatin on purified bovine LPL (Sigma) and pancreatic lipase (from porcine pancreas, Sigma). Data are presented as mean +/- S.D. of triplicate determinations and are representative for at least three independent experiments (p < 0.05 **, p < 0.01; ***, p < 0.001). • Figure 3 Inhibition of lipolysis in 3T3-L1 adipocytes and WAT organ cultures. (A,B) Differentiated 3T3 cells were preincubated with the indicated concentrations of Atglistatin. Thereafter, the medium was replaced by DMEM containing 2% BSA (fatty acid free), 10 µM forskolin, in the presence or absence of inhibitors. The release of FA (A) and glycerol (B) in the media was determined using commercial kits. Basal FA and glycerol release (not shown) was barely detectable under the applied conditions. Data are presented as mean +/- SD and are representative for 2 independent experiments. (C-F) Effect of Atglistatin on WAT basal (C, D) and forskolin-stimulated (E, F) lipolysis. Adipose tissue pieces (∼15 mg, n=5 for each concentration) of wild-type mice were cultured for 8 h in DMEM containing 2 % FA-free BSA and the indicated concentrations of Atglistatin. Subsequently, the medium was replaced by identical fresh medium and samples were collected after incubation for another hour in the presence or in the absence of 10 µM forskolin. Atglistatin was solubilized in DMSO and DMSO alone was used as negative control. Data are presented as mean +/- S.D. (*, p < 0.05 **, p < 0.01; ***, p < 0.001). • Figure 4 Inhibition of lipolysis in vivo. […] At the indicated timepoints blood was taken retroorbitally and plasma parameters were measured using commercial kits. […] 8 h after gavage blood was taken retroorbitally and plasma parameters were measured using commercial kits. […]

pancreatic lipase = molecular target: T2, pancreatic lipase (Sus scrofa, UniProt P00591); assay: Pancreatic lipase activity, triolein substrate; assay type: biochemical, porcine; settings: Fig. 2D
T2 construct: pancreatic lipase (from porcine pancreas, Sigma); purchased Sigma; host or cells: porcine pancreas
T2 sequence (P00591 1-450): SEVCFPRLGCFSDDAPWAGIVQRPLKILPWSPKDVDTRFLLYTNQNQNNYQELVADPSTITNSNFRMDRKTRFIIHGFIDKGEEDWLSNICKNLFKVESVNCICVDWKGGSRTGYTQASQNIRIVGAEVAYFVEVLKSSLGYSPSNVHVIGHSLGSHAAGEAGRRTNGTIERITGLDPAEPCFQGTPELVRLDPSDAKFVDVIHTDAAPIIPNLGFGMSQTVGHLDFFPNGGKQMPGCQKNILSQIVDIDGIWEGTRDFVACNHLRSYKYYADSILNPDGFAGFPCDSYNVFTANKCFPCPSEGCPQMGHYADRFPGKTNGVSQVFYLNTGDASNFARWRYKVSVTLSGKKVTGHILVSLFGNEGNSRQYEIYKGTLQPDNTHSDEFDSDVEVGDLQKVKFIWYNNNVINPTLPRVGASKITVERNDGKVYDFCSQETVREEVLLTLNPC
Protocol: (§1) • Figure 1. Structure of compounds 1 to 3 (reference) and compound 4 (atglistatin) and effect on ATGL activity. For determination of lipase activity, lysates of E. coli overexpressing recombinant strep-tagged ATGL and CGI-58 were incubated with a substrate containing radiolabeled [9,10-3H(N)]-triolein. Subsequently, FA were extracted and quantified by liquid scintillation counting. Lysates of cells expressing empty vector were set as blank. Inhibitors were solubilized in DMSO and added at the indicated concentrations. DMSO alone was used as negative control. (A) Structure and IC50 values of compounds 1-4. (B) Dose-dependent inhibition of ATGL in the presence of compound 3 and 4. […] (C) Lineweaver-Burk plots for kinetic analysis of ATGL inhibition. Experiments were performed at varying concentrations of substrate (0.05 - 3 mM) in presence and absence of compound 4 (Atglistatin). […] Lipase activity of ATGL, HSL, lipoprotein lipase, and pancreatic lipase was determined using triolein as substrate. MGL activity was detected in the presence of rac-(1,3)-monooleoylglycerol as substrate. […] The release of FA (A) and glycerol (B) in the media was determined using commercial kits. […] At the indicated timepoints blood was taken retroorbitally and plasma parameters were measured using commercial kits. […] 8 h after gavage blood was taken retroorbitally and plasma parameters were measured using commercial kits. […]

3T3-L1 adipocytes = assay: Forskolin-stimulated lipolysis of differentiated 3T3-L1 adipocytes; assay type: cell-based, mouse; settings: 10 µM forskolin-stimulated, dose dependent (0-50 µM)
Protocol: as §1

CN(C)C(=O)Nc1cccc(-c2ccc(N(C)C)cc2)c1 [Atglistatin, atglistatin]
Ki (recombinant ATGL): 500 ± 200 nM | mechanism of ATGL inhibition (recombinant ATGL; increase in apparent Km, unchanged Vmax, substrate 0.05 - 3 mM): competitive inhibitor | IC50 (recombinant ATGL; inhibition of the activity of recombinant ATGL): 700 nM | effect on pancreatic lipase (pancreatic lipase): only minor effects | inhibition of FA release (3T3-L1 adipocytes): almost complete inhibition | inhibition of glycerol release (3T3-L1 adipocytes): ~90%
